Like-named read-outs stand apart in the source and are kept apart here.
How the values were obtained:
[1] = tested on: stomach tissues; assay: Stomach RNA-sequencing, ENT-02 (MSI-1436) treatment and congruence with ENT-03 (Example 10); type: in vivo, mice; settings: stomach RNA-seq
Protocol: Samples of stomach tissues from the mice were analysed by RNA-sequencing on an Illumina platform.
To achieve these aims, data were subject to a quality control evaluation, differential expression and functional enrichment analyses, as well as a congruence analysis.
[…] At this threshold, differentially expressed genes were identified in all contrasts.
As mentioned previously, for statistical robustness, only those with an adjusted p-value <0.05 should be considered. […]
The amount of overlap is represented in FIGS. 28A-28D. For each comparison, the value in the plot represents the number of intersecting selected genes and the color represents the Jaccard index (the intersection over the union) for the two contrasts under consideration.
Scatter plots, upset plots, venn diagrams, hypergeometric tests and Spearman rank correlation tests were employed to assess the level of overlap as shown in FIGS. 15-27.

[2] = biological target: T1, PP2A Alpha/PP2R1A Complex (Homo sapiens, UniProt P67775); assay: Phosphatase panel, DiFMUP fluorescence assay; type: biochemical
T1 construct: purchased Recation Biology Inc

[3] = biological target: T2, PTPN1/PTP1B (Homo sapiens, UniProt P18031); assay: PTP1B inhibition, fluorescence time-course, 10-dose IC50 (Example 2); type: biochemical
T2 construct: The enzyme was the human truncated form (1-321), recombinantly produced in Escherichia coli; host or cells: Escherichia coli
T2 sequence (P18031 1-321): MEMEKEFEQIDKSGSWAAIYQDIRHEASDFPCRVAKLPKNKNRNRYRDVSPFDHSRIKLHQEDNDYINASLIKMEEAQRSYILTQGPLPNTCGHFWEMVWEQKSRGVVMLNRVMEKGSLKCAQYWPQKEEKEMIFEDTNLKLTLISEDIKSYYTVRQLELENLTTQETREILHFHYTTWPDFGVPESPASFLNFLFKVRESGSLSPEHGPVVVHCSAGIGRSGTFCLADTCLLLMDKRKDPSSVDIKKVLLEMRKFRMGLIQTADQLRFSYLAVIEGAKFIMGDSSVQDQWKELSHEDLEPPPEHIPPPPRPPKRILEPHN

[4] = biological target: Tyrosine-protein phosphatase non-receptor type 11 (Homo sapiens, UniProt Q06124); assay: Phosphatase panel, DiFMUP fluorescence assay; type: biochemical
[5] = biological target: T3, PTPN2/TC-PTP (Homo sapiens, UniProt P17706); assay: Phosphatase panel, DiFMUP fluorescence assay; type: biochemical
T3 construct: purchased Recation Biology Inc
T3 sequence (P17706 1-415): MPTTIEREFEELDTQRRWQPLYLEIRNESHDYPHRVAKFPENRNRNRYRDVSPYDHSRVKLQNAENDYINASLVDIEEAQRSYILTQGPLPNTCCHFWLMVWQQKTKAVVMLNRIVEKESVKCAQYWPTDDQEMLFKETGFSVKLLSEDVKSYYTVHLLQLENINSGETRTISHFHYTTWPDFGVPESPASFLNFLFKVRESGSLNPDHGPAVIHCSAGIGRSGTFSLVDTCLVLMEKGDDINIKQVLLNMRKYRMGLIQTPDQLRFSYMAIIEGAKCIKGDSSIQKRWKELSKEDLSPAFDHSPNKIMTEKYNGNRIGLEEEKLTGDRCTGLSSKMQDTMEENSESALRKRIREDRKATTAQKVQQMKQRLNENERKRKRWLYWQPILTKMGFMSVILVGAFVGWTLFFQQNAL

[6] = biological target: T4, PTPN12/PTP-PEST (Homo sapiens, UniProt Q05209); assay: Phosphatase panel, DiFMUP fluorescence assay; type: biochemical
T4 construct: purchased Recation Biology Inc
T4 sequence (Q05209 1-780): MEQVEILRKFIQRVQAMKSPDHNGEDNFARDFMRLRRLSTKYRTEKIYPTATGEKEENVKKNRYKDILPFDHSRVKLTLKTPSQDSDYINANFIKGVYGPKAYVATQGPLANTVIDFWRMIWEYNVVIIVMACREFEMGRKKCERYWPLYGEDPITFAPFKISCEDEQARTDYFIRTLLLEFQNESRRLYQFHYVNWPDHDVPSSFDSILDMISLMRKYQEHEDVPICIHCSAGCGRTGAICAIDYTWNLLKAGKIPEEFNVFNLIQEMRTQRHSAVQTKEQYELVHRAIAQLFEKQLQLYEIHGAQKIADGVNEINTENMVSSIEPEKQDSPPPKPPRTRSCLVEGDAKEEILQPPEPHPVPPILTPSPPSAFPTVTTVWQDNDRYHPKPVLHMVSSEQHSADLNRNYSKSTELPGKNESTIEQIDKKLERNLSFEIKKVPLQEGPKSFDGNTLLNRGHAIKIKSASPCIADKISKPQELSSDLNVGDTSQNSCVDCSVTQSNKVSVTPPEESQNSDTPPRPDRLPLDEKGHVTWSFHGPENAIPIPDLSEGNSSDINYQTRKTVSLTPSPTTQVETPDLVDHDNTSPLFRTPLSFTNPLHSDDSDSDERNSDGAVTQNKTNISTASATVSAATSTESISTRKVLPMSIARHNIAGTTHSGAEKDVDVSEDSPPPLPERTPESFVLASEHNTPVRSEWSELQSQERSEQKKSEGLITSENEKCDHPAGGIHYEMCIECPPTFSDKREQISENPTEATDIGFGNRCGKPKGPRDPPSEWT

[7] = biological target: T5, PTPRC/CD45 (Homo sapiens, UniProt P08575); assay: Phosphatase panel, DiFMUP fluorescence assay; type: biochemical
T5 construct: purchased Recation Biology Inc
T5 sequence (P08575 26-1306): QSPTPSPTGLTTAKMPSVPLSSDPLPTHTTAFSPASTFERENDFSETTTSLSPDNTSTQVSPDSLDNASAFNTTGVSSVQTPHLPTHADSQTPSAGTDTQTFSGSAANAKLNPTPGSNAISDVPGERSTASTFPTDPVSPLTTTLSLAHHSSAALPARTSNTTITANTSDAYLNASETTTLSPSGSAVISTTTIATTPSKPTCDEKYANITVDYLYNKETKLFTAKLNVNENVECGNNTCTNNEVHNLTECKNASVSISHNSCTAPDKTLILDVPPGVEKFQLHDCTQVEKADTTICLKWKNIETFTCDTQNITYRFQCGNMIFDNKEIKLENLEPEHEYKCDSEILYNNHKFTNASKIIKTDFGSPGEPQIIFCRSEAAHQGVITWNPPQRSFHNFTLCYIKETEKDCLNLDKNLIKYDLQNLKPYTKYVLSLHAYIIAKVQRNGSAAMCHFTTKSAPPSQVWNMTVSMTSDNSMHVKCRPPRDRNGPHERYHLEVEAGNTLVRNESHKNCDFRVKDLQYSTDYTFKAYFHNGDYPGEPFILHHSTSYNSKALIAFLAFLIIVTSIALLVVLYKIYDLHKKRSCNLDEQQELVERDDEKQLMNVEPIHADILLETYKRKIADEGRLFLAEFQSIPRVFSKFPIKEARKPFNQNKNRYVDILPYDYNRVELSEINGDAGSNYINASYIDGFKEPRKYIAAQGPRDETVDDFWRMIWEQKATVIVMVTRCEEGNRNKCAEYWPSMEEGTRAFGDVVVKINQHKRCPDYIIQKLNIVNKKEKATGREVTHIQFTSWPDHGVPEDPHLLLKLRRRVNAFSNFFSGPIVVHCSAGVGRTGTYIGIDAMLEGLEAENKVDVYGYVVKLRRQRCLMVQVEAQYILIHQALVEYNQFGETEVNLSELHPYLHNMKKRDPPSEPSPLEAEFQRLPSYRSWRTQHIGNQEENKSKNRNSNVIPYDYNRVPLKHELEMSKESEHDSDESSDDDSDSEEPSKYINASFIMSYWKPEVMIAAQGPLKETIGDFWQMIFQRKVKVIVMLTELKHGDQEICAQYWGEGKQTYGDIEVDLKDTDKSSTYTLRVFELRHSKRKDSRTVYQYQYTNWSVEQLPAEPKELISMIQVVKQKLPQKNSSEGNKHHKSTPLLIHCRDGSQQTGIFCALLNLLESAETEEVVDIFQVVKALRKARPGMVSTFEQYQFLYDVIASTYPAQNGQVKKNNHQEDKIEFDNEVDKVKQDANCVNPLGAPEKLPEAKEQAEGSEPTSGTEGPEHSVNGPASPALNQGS

[8] = biological target: T6, PTPN6/SHP1 (Homo sapiens, UniProt P29350); assay: Phosphatase panel, DiFMUP fluorescence assay; type: biochemical
T6 construct: purchased Recation Biology Inc
T6 sequence (P29350 whole entry): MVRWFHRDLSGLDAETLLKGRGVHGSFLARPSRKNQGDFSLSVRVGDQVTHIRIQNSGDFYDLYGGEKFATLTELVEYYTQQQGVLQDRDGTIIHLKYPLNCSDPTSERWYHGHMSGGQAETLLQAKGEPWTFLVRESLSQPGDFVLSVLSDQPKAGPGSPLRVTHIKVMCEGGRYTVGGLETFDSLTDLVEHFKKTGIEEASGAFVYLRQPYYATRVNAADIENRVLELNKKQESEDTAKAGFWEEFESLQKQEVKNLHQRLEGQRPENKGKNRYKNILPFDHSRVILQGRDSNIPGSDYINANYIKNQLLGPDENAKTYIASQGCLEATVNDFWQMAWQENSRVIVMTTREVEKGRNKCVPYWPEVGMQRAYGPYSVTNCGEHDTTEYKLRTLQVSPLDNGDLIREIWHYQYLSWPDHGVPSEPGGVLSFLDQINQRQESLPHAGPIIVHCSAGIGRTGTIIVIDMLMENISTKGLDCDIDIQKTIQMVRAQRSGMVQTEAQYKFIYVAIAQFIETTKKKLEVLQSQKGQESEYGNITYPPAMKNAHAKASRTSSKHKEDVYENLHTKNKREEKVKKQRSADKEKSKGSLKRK

T1 sequence (P67775 whole entry): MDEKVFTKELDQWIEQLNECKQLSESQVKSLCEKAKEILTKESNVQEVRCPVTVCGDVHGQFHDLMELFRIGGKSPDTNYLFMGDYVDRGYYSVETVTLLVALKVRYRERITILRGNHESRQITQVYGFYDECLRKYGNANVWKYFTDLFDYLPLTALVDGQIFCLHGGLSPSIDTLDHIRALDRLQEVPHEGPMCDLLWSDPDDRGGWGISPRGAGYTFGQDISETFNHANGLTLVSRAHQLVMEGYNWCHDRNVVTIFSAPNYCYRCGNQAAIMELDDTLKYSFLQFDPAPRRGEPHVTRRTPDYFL
T1 sequence (P30153 whole entry partner): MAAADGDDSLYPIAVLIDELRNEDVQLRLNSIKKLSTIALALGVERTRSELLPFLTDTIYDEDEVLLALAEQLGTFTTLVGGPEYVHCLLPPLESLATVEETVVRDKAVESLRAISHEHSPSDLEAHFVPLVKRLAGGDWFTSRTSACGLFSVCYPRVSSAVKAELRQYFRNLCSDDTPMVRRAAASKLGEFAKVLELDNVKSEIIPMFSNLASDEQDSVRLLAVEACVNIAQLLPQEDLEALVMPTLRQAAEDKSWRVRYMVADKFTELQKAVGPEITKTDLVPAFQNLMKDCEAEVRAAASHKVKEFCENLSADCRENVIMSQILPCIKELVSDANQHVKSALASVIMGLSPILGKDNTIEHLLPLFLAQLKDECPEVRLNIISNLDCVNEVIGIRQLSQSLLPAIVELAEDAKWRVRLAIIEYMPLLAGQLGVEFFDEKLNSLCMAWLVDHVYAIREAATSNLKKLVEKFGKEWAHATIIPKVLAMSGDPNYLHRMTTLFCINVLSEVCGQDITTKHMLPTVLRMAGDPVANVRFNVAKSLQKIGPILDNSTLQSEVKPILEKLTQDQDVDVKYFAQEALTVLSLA
Tyrosine-protein phosphatase non-receptor type 11, sequence (Q06124 247-517): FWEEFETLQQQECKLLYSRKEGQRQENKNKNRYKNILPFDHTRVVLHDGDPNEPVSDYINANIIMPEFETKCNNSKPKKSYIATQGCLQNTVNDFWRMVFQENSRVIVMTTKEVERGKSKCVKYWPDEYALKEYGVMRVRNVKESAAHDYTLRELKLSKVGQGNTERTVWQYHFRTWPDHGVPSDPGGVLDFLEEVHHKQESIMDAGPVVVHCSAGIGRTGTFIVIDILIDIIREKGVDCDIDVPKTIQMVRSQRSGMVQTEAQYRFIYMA

## CC(C)[C@@H](CC[C@@H](C)[C@H]1CC[C@H]2[C@@H]3[C@H](O)C[C@H]4C[C@@H](NCCCNCCCCN)CC[C@]4(C)[C@H]3CC[C@]12C)OS(=O)(=O)O (single isomer, unassigned) [Ent-01, Squalamine]
[1]; old vs young mice, both treated, threshold 4x
  number of significant features, down-regulated, fold change threshold 4x: 69
[1]; old vs young mice, both treated, threshold 8x
  number of significant features, down-regulated, fold change threshold 8x: 36
[1]; old vs young mice, both treated, threshold 16x
  number of significant features, down-regulated, fold change threshold 16x: 27
[1]; treatment vs control, old mice, threshold 4x
  number of significant features, down-regulated, fold change threshold 4x: 66
[1]; treatment vs control, old mice, threshold 8x
  number of significant features, down-regulated, fold change threshold 8x: 25
[1]; treatment vs control, old mice, threshold 16x
  number of significant features, down-regulated, fold change threshold 16x: 11
[1]; treatment vs control, young mice, threshold 8x
  number of significant features, down-regulated, fold change threshold 8x: 47
[1]; treatment vs control, young mice, threshold 16x
  number of significant features, down-regulated, fold change threshold 16x: 12
[1]; treatment vs control, young mice, up-regulated, threshold 4x
  number of significant features, up-regulated, fold change threshold 4x: 58
[1]; treatment vs control, young mice, up-regulated, threshold 8x
  number of significant features, up-regulated, fold change threshold 8x: 38
[1]; treatment vs control, young mice, up-regulated, threshold 16x
  number of significant features, up-regulated, fold change threshold 16x: 28

## CC1(C(=O)O)C2CCC(O2)C1(C)C(=O)O (centres unmarked) [Canthardic Acid, Cantharidic acid, reference compound]
[2]; Compound IC50 (M) PP2A Alpha/PP2R1A Complex, Table 5B
  IC50: 1.7e-08 M
[2]; inhibitory activity PP2A Alpha/PP2R1A Complex, Table 18A
  IC50: 2.78e-08 M
[2]; inhibitory activity PP2A Alpha/PP2R1A Complex, Table 19A
  IC50: 3.01e-08 M

## [2H]C([2H])([2H])C([2H])(C(CC[C@@H](C)[C@H]1CCC2C3C(CC[C@@]21C)[C@@]1(C)CC[C@H](NCCCNCCCCNCCCN)C[C@@H]1C[C@H]3O)OS(=O)(=O)O)C([2H])([2H])[2H] (some centres unmarked) [Compound D7-1436]
[3]; Conc 1.00E−04 M
  Slope (signal/min): −161 signal/min
[3]; Conc 1.11E−05 M
  Slope (signal/min): −319 signal/min
[3]; Conc 1.23E−06 M
  Slope (signal/min): 34760 signal/min
[3]; Conc 1.37E−07 M
  Slope (signal/min): 40150 signal/min
[3]; Conc 1.52E−08 M
  Slope (signal/min): 43819 signal/min
[3]; Conc 3.33E−05 M
  Slope (signal/min): −362 signal/min
[3]; Conc 3.70E−06 M
  Slope (signal/min): 8429 signal/min
[3]; Conc 4.12E−07 M
  Slope (signal/min): 41755 signal/min
[3]; Conc 4.57E−08 M
  Slope (signal/min): 43697 signal/min
[3]; Conc 5.08E−09 M
  Slope (signal/min): 44655 signal/min
[3]; Table 5A
  HILLSLOPE: −2.50

## CCc1oc2cc(S(=O)(=O)Nc3ccc(S(=O)(=O)Nc4nccs4)cc3)ccc2c1C(=O)c1cc(Br)c(O)c(Br)c1 [PTP1B Inhibitor, 3-(3,5-Dibromo-4-hydroxy-benzoyl)-2-ethyl-benzofuran-6-sulfonicacid-(4-(thiazol-2-ylsulfamyl)-phenyl)-amide, reference compound]
[4]
  IC50: 1.82 µM
[5]; Table 5C, read-out: Compound IC50 (M) PTPN2/TC-PTP
  IC50: 1.34e-05 M
[5]; Table 18B, read-out: inhibitory activity PTPN2/TC-PTP
  IC50: 7.53e-06 M
[5]; Table 19B, read-out: inhibitory activity PTPN2/TC-PTP
  IC50: 5.86e-06 M
[6]; Table 5C, read-out: Compound IC50 (M) PTPN12/PTP-PEST
  IC50: 2.99e-05 M
[6]; Table 18B, read-out: inhibitory activity PTPN12/PTP-PEST
  IC50: 2.16e-06 M
[6]; Table 19B, read-out: inhibitory activity PTPN12/PTP-PEST
  IC50: 1.21e-06 M
[7]; Table 5B, read-out: Compound IC50 (M) PTPRC/CD45
  IC50: 5.7e-05 M
[7]; Table 18A, read-out: inhibitory activity PTPRC/CD45
  IC50: 2.8e-05 M
[7]; Table 19A, read-out: inhibitory activity PTPRC/CD45
  IC50: 2.66e-05 M
[8]; Table 5B, read-out: Compound IC50 (M) PTPN6/SHP1
  IC50: 5.75e-06 M
[8]; Table 18A, read-out: inhibitory activity PTPN6/SHP1
  IC50: 3.47e-06 M
[8]; Table 19A, read-out: inhibitory activity PTPN6/SHP1
  IC50: 3.67e-06 M

Source: patent US20250228873A1, “C25 R AND S ISOMERS OF AMINOSTEROLS AND METHODS OF MAKING AND USING THE SAME” (Enterin, Inc., priority 2022, published 2025)
